According to patent US9194872B2, “Potentiation of nanopharyngeal cancer radiotherapy by inhibitors of leukemia inhibitory factor” (Chang Gung University, priority 2013, dated 2015):

What was measured:
[1] = system: nasopharyngeal cancer cell; experiment: Caspase3/7 positive cells after substance treatment and radiation in 4 Gy; type: cell-based; conditions: radiation 4 Gy; 96th hour after emission; LIF versus sLIFR treatment; FIG. 4D
[2] = system: TW06 cell transfected with firefly luciferase 2 reporter gene; experiment: Tumor growth of mouse with intratumoral injection and radiation in 7 Gy; type: in vivo, NOD/SCID mouse; conditions: twice per week, 4 weeks, LIF 150-200 ng, sLIFR 1-2 μg, radiation 7 Gy following first injection, FIGS. 5A, 5B
Description: A TW06 cell transfected with firefly luciferase 2 reporter gene was subcutaneously injected into the thigh of a 7-week-old NOD/SCID mouse. Until the tumor on the thigh was grown to a volume of 60-100 mm^3, PBS, leukemia inhibitory factor (150-200 ng, twice per week, 4 weeks), or a soluble leukemia inhibitory factor receptor (1-2 μg, twice per week, 4 weeks) was intratumorally injected into the mouse, and then radiation in a dose of 7 Gy were emitted to the mouse following the first injection. Finally, the mouse's tumor was observed, and its activity and volume were detected by an in vivo imaging system at a certain time point after the emission.

[3] = system: TW06 cell transfected with firefly luciferase 2 reporter gene; experiment: Tumor growth of mouse with intratumoral injection (in vivo imaging system); design: species or system NOD/SCID mouse; conditions: twice per week, 4 weeks, LIF 150-200 ng, sLIFR 1-2 μg, compared with PBS, FIGS. 3B, 3C
Description: In addition, a TW06 cell transfected with firefly luciferase 2 reporter gene was subcutaneously injected into the thigh of a 7-week-old NOD/SCID (non-obese diabetic/severe-combined immunodeficient) mouse. Until the tumor on the mouse's thigh was grown to a volume of 50 mm^3, PBS, leukemia inhibitory factor (150-200 ng, twice per week, 4 weeks), or a soluble leukemia inhibitory factor receptor (1-2 μg, twice per week, 4 weeks) was intratumorally injected into the mouse. Finally, the mouse's tumor was observed, and its activity and volume were detected by an in vivo imaging system at a certain time point after the injection.

CNE1 cells = experiment: Resistance of nasopharyngeal cancer cell to radiation in various doses (xCelligence); type: cell-based; conditions: LIF 10 ng/ml; for IC50 value of the radiation for the treated cells: FIG. 4B
Description: Firstly, 6×10^3 CNE1 cells were seeded. After cultivated at 37° C. overnight, the seeded cells were treated with PBS and leukemia inhibitory factor (10 ng/ml), and then radiation in various doses were emitted to the treated cells. Finally, an xCelligence real time cell analyzer was used to detect the cell growth at a certain time point after this emission.

[4] = system: ATM, p53, γH2AX, NBS1 or CDC25C; experiment: Western blotting of apoptosis-related and DNA damage-related proteins after radiation in 4 Gy; type: cell-based; conditions: TW06 and CNE1 cells; radiation 4 Gy; 10th minute following emission; sLIFR versus LIF; FIGS. 4E, 4F
TW06 cells = experiment: Growth of nasopharyngeal cancer cell in vitro (xCelligence real time cell analyzer); type: cell-based; conditions: sLIFR 1 μg/ml, LIF 10 ng/ml, compared among PBS, sLIFR plus LIF, FIG. 3A
Description: 6×10^3 TW06 cells were seeded, and then cultivated at 37° C. overnight. These cells were treated with PBS, a soluble leukemia inhibitory factor receptor (1 μg/ml), leukemia inhibitory factor (10 ng/ml), or a soluble leukemia inhibitory factor receptor plus leukemia inhibitory factor. After which, an xCelligence real time cell analyzer (Roche Applied Science) was used to detect the cell growth at a certain time point after this treatment.

CNE1 cells or TW06 cells = experiment: Cell survival after substance treatment and radiation in 4 Gy (xCelligence); type: cell-based; conditions: radiation 4 Gy, sLIFR 1 μg/ml, LIF 10 ng/ml, FIG. 4C
Description: In another aspect, 6×10^3 CNE1 cells or TW06 cells were seeded, and then cultivated at 37° C. overnight. The cultivated cells were treated with PBS, a soluble leukemia inhibitory factor receptor (1 μg/ml), leukemia inhibitory factor (10 ng/ml), or leukemia inhibitory factor plus a soluble leukemia inhibitory factor receptor. After which, radiation in 4 Gy were emitted to the treated cells. Finally, an xCelligence real time cell analyzer was used to detect the cell survival at a certain time point after this emission.

Molecule: leukemia inhibitory factor: a cytokine belonging to the interleukin-6 family and mediating cell growth through inhibition of cell differentiation
- Caspase3/7 expression level [1]: low Caspase3/7 expression level
- tumor volume of the mouse with radiation emission [2]: the biggest
- tumor volume of the mouse [3]: the biggest
- IC50 value of the radiation for the treated cells (CNE1 cells; 48th hour after radiation emission (PBS 1.5 Gy)): 3.7 Gy
- IC50 value of the radiation for the treated cells (CNE1 cells; 55th hour after radiation emission (PBS 1.3 Gy)): 5.8 Gy
- growth of cells with radiation emission (CNE1 cells; radiation in various doses, versus PBS, FIG. 4A): more obvious than that with PBS treatment and radiation emission

B1: soluble leukemia inhibitory factor receptor: non-transmembrane protein (soluble receptor) that can bind leukemia inhibitory factor (protein, UniProt P42702 45-833, looked up)
extracellular domain: QKKGAPHDLKCVTNNLQVWNCSWKAPSGTGRGTDYEVCIENRSRSCYQLEKTSIKIPALSHGDYEITINSLHDFGSSTSKFTLNEQNVSLIPDTPEILNLSADFSTSTLYLKWNDRGSVFPHRSNVIWEIKVLRKESMELVKLVTHNTTLNGKDTLHHWSWASDMPLECAIHFVEIRCYIDNLHFSGLEEWSDWSPVKNISWIPDSQTKVFPQDKVILVGSDITFCCVSQEKVLSALIGHTNCPLIHLDGENVAIKIRNISVSASSGTNVVFTTEDNIFGTVIFAGYPPDTPQQLNCETHDLKEIICSWNPGRVTALVGPRATSYTLVESFSGKYVRLKRAEAPTNESYQLLFQMLPNQEIYNFTLNAHNPLGRSQSTILVNITEKVYPHTPTSFKVKDINSTAVKLSWHLPGNFAKINFLCEIEIKKSNSVQEQRNVTIKGVENSSYLVALDKLNPYTLYTFRIRCSTETFWKWSKWSNKKQHLTTEASPSKGPDTWREWSSDGKNLIIYWKPLPINEANGKILSYNVSCSSDEETQSLSEIPDPQHKAEIRLDKNDYIISVVAKNSVGSSPPSKIASMEIPNDDLKIEQVVGMGKGILLTWHYDPNMTCDYVIKWCNSSRSEPCLMDWRKVPSNSTETVIESDEFRPGIRYNFFLYGCRNQGYQLLRSMIGYIEELAPIVAPNFTVEDTSADSILVKWEDIPVEELRGFLRGYLFYFGKGERDTSKMRVLESGRSDIKVKNITDISQKTLRIADLQGKTSYHLVLRAYTDGGVGPEKSMYVVTKENS
modifications: extracellular domain
- activation/phosphorylation of apoptosis-related and DNA damage-related proteins [4]: activated/phosphorylated more strongly
- growth of cells (TW06 cells): the most unobvious
- growth of cells with radiation emission (CNE1 cells or TW06 cells): the most unobvious
- tumor volume of the mouse with radiation emission [2]: the smallest
- tumor volume of the mouse [3]: the smallest
